The text below walks through data of patent publication US12084444B2, “Spiro-lactam NMDA modulators and methods of using same” (Tenacia Biotechnology (Hong Kong) Co., Limited, priority 2016, dated 2024).

What is called EC50 is the concentration needed to bring the measured effect to its halfway point.

Experiment [1] deals with T1, NMDAR2D expressing HEK cell membranes (Homo sapiens, UniProt O15399+Q05586).
T1 construct: expressed in transfected cells; host or cells: HEK cells (membrane extract)
Put plainly: NMDAR agonist assay, [3H]MK-801 binding, NMDAR2D. Type of experiment: biochemical. Conditions: 50 μM glutamate; read-out: NMDAR2D B: log EC50 (converted). In a few lines: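 HEK membranes (300 μg protein) expressing each subtype were preincubated 15 min at 25 °C with 50 μM glutamate and compound (1×10^−15–1×10^−7 M) or 1 mM glycine. [3H]MK-801 (0.3 μCi) binding then ran 15 min under nonequilibrium conditions, followed by filtration. EC50 and % maximal binding against 1 mM glycine came from three-parameter fits of baseline-subtracted DPM (N=2).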

The next experiment relates to rats. Put plainly: Positive emotional learning (PEL) test, 50-kHz ultrasonic vocalizations. The conditions noted are these: dose range 0.001-1 mg/kg, orally; tested one hour after administration. Type of experiment: in vivo, rat. The procedure: Experiments were conducted as described in Burgdorf et al., “The effect of selective breeding for differential rates of 50-kHz ultrasonic vocalizations on emotional behavior in rats,” Devel. Psychobiol., 51:34-46 (2009). Rat 50-kHz ultrasonic vocalization (hedonic USVs) is a validated model for the study of positive affective state and is best elicited by rough-and-tumble play.
The PEL assay measures the acquisition of positive (hedonic) 50-kHz ultrasonic vocalizations (USVs) to a social stimulus, heterospecific rough and tumble play stimulation. Heterospecific rough-and-tumble play stimulation was administered by the experimenter's right hand. […] High frequency ultrasonic vocalizations (USVs) were recorded and analyzed by sonogram with Avasoft SASlab Pro (Germany) as previously described by Burgdorf et al., “Positive emotional learning is regulated in the medial prefrontal cortex by GluN2B-containing NMDA receptors,” Neuroscience, 192:515-523 (2011). Frequency modulated 50-kHz USVs that occurred during each of the no-stimulation periods were quantified to measure PEL. […] Positive emotional learning was measured during the conditioned stimulus (CS) trials preceding the tickle unconditioned stimulus (UCS) trials. […]

T1 sequence (O15399 28-1336, other chains not shown): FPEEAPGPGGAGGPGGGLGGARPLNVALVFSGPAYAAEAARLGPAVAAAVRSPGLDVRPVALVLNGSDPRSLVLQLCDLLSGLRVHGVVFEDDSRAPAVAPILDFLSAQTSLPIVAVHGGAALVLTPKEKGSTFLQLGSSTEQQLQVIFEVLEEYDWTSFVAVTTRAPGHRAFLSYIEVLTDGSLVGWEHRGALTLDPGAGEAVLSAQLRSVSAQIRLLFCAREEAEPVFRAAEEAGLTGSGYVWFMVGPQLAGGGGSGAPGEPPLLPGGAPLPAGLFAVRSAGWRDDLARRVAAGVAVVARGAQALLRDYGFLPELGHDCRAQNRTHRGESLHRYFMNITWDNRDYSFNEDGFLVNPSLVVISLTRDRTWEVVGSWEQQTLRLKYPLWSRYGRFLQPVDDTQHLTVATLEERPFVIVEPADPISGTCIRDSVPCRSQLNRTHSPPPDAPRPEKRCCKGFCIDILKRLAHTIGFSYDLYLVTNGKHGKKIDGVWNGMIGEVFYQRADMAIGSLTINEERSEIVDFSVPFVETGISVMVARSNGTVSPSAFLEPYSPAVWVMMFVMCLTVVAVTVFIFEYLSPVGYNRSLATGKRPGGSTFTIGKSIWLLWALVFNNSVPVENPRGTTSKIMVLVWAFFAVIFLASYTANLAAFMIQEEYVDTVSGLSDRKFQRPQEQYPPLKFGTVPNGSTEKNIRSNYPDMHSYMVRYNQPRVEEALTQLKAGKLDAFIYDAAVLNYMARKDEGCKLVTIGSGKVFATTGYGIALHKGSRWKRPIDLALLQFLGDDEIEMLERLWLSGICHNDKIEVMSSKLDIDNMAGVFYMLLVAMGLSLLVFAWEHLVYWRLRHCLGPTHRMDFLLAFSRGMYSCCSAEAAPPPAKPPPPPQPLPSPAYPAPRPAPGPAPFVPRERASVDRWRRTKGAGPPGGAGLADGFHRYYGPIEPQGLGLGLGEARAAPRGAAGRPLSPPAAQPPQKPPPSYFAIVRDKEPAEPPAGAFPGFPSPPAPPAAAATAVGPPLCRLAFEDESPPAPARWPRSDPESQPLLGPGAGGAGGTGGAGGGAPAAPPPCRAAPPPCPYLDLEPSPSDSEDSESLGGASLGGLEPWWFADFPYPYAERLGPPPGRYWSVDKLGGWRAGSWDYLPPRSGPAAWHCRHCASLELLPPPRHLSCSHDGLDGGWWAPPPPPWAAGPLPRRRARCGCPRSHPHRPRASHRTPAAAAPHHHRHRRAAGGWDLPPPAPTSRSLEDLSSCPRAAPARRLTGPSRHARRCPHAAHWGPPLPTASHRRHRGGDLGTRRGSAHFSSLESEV

Consider `COc1ccc(CN2C[C@@]3(CCNC(=O)C3)C2=O)cc1` [Compound AA-2, 2-(4-methoxybenzyl)-2,7-diazaspiro[3.5]nonane-1,6-dione], for which the half-maximal effective concentration (EC50) in experiment [1] was less than 1 nM. Moreover, in the experiment with rats, the “maximum effect, mean number of 50 kHz USVs per 15 seconds” value is reported as 10.1-20 50 kHz USVs per 15 seconds.
